{
  "source": "patent US7268232B2",
  "about": "(Acadia Pharmaceuticals Inc., priority 2004, dated 2007)",
  "key": {"Androgen AR receptor": {"biological_target": "T1, Androgen AR receptor (Homo sapiens, UniProt P10275)", "T1 construct": "expressed in transfected cells; host or cells: NIH3T3 cells", "T1 sequence (P10275 1-920)": "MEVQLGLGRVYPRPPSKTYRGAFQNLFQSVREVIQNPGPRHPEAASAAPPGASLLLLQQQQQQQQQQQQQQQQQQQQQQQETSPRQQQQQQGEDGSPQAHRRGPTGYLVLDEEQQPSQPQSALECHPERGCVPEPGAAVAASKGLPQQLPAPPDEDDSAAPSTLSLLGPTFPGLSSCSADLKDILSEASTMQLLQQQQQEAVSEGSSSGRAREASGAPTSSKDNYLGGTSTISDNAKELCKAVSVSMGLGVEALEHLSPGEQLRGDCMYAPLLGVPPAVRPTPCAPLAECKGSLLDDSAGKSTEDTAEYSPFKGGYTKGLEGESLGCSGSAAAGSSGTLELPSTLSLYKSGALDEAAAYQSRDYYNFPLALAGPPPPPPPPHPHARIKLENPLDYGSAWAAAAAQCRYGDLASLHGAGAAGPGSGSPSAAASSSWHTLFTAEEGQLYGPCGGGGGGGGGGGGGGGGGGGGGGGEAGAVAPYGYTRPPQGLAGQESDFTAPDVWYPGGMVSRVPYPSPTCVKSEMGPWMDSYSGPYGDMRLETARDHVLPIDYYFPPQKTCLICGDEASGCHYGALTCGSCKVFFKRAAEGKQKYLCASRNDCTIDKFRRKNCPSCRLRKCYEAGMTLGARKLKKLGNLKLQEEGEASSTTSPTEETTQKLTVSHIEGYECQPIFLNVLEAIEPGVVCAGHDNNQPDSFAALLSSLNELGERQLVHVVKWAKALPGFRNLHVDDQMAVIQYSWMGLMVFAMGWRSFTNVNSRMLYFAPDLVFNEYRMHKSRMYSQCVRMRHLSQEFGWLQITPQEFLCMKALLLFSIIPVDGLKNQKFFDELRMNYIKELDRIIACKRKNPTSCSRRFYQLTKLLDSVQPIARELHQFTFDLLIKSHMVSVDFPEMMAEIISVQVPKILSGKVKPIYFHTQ", "experiment": "Receptor Selection and Amplification (R-SAT) assay, androgen receptor agonist activity", "format": "cell-based", "settings": "for Emax: NIH3T3, read-out: % Efficacy", "method": "Receptor Selection and Amplification (R-SAT) Assays. The functional receptor assay, Receptor Selection and Amplification Technology (R-SAT™), was used with minor modifications from the procedure described previously (Brann, M. R. U.S. Pat. No. 5,707,798, 1998) to screen compounds for efficacy at the Androgen AR receptor. Briefly, NIH3T3 cells were grown in roller bottles to 70-80% confluence. Cells were then transfected for 12-16 h with plasmid DNAs using Polyfect (Qiagen Inc.) as per the manufacturer's protocol. R-SAT assays were typically performed by transfecting 30 ug/bottle of receptor and 50 ug/bottle of β-galactosidase plasmid DNA. All receptor and helper constructs used were in mammalian expression vectors. Helpers are defined as signaling molecules that modulate both ligand-dependent and/or ligand-independent function of the AR receptor, typically co-activators. NIH3T3 cells were transfected for 12-16 h, then trypsinized and frozen in DMSO. Frozen cells were later thawed, plated at 10,000-40,000 cells per well of a 96 well plate containing drug. Cells were then grown in a humidified atmosphere with 5% ambient CO2 for five days. Media was then removed from the plates and marker gene activity was measured by the addition of the β-galactosidase substrate o-nitrophenyl β-D-galactopyranoside (ONPG, in PBS with 5% NP-40). The resulting colorimetric reaction was measured in a spectrophotometric plate reader (Titertek Inc.) at […]. All data were analyzed using the computer program XLFit (IDBSm)."}, "[1]": {"test_system": "castrated male Sprague Dawley rats", "experiment": "Wet tissue weights (prostate, seminal vesicle, levator ani muscle) after daily s.c. administration for two weeks", "format": "in vivo, rat", "settings": "for wet weight of prostate / wet weight of seminal vesicle: castrated rats", "method": "(§1) Androgen Receptor agonist 116BG33 was administered s.c. daily for two weeks to castrated male Sprague Dawley rats (n=3). The effects of 116BG33 (3, 10, 30 mg/kg) were compared to testosterone propionate (0.1 and 1 mg/kg; positive control) and vehicle (10% Tween80; negative control). Blood and wet weights of prostate gland and seminal vesicle were measured after sacrifice that occurred 24 hours after the last dose. Blood was collected in heparin collection tubes after sacrifice that occurred 24 hours after the last dose. Blood was centrifuged and plasma collected and plasma samples frozen."}, "[2]": {"test_system": "castrated male Sprague Dawley rats", "experiment": "Rat luteinizing hormone (LH) plasma levels by ELISA after daily s.c. administration for 14 days", "format": "in vivo", "settings": "for dose at which complete reversal of plasma LH levels is evident: s.c. daily for 14 days", "method": "as §1\nRat luteinizing hormone (LH) plasma levels were determined using an enzyme linked immunoabsorbent assay (ELISA) from Amersham as per manufacturer's instructions. The solid phase assay is based on the competition between unlabeled rLH and a fixed quantity of biotin labelled rLH for a limited amount of rLH specific antibody. A conjugate streptavidin/peroxidase allows for signal amplification and detection in presence of the substrate."}, "[3]": {"settings": "3, 10 or 30 mg/kg s.c. daily for two weeks, compared to vehicle"}, "[4]": {"settings": "0.1 mg/kg s.c. daily for two weeks, compared to vehicle"}, "[5]": {"settings": "1 mg/kg s.c. daily for two weeks, compared to vehicle"}},
  "note": "Counter-ions that a name gives are not always drawn.",
  "data": [
    {"smiles": "CC1CCC(C)N1c1ccc([N+](=O)[O-])c2ccccc12", "note": "(stereo not drawn)", "values": [
      {"measurement": "EC50", "setting": "Androgen AR receptor", "value": 7.94, "unit": "nM"},
      {"measurement": "Emax", "setting": "Androgen AR receptor", "value": 94, "unit": "%"}
    ]},
    {"smiles": "N#Cc1ccc(N2[C@@H]3CC[C@H]2CC(NCCc2c[nH]cn2)C3)c2ccccc12", "note": "(mixture of isomers) [156AF11-229, 4-{3-[2-(1H-Imidazol-4-yl)ethylamino]-8-azabicyclo[3.2.1]oct-8-yl}naphthalene-1-carbonitrile, dihydrochloride]", "values": [
      {"measurement": "EC50", "setting": "Androgen AR receptor", "value": 158, "unit": "nM"},
      {"measurement": "Emax", "setting": "Androgen AR receptor", "value": 44, "unit": "%"}
    ]},
    {"smiles": "O=[N+]([O-])c1ccc(N2CCCC2)c2ccccc12", "note": "[116BG33, 1-(4-Nitronaphthalen-1-yl)pyrrolidine]", "values": [
      {"measurement": "wet weight of prostate", "setting": "[1]; [3]", "value": "did not have any effect"},
      {"measurement": "wet weight of seminal vesicle", "setting": "[1]; [3]", "value": "did not have any effect"},
      {"measurement": "dose at which complete reversal of plasma LH levels is evident", "setting": "[2]", "value": 30, "unit": "mg/kg"},
      {"measurement": "plasma LH levels", "setting": "[2]; sub-cutaneous, 3, 10, 30 mg/kg, 14 days", "value": "reduces LH levels to physiological norms"}
    ]},
    {"smiles": "N#Cc1ccc(N2CCCCC2)c2ccccc12", "note": "[136BG73-10, 4-Piperidin-1-ylnaphthalene-1-carbonitrile]", "values": [
      {"measurement": "EC50", "setting": "Androgen AR receptor", "value": 7.94, "unit": "nM"},
      {"measurement": "Emax", "setting": "Androgen AR receptor", "value": 66, "unit": "%"}
    ]},
    {"smiles": "N#Cc1ccc(N2CCC(O)C2)c2ccccc12", "note": "(stereo not drawn) [136BG85-2, 4-(3-Hydroxypyrrolidin-1-yl)naphthalene-1-carbonitrile]", "values": [
      {"measurement": "EC50", "setting": "Androgen AR receptor", "value": 79.4, "unit": "nM"},
      {"measurement": "Emax", "setting": "Androgen AR receptor", "value": 41, "unit": "%"}
    ]},
    {"smiles": "N#Cc1ccc(N2[C@@H]3CC[C@H]2CC(O)C3)c2ccccc12", "note": "(stereo partly drawn) [154BG31, 4-(3-endo-Hydroxy-8-azabicyclo[3.2.1]oct-8-yl)naphthalene-1-carbonitrile]", "values": [
      {"measurement": "wet tissue weights (prostate, seminal vesicle, levator ani muscle)", "setting": "[1]; 3 mg/kg s.c. daily for two weeks", "value": "did not appear to significantly alter"},
      {"measurement": "dose relative to TP at which negative side effects (increased seminal vesicle and prostate size) become evident", "setting": "[1]; compared to TP", "value": "at least 100 × of TP"},
      {"measurement": "wet tissue weights (prostate, seminal vesicle, levator ani muscle)", "setting": "[1]; higher doses (3 and 10 mg/kg) daily, not to the extent of TP", "value": "appeared to significantly increase"},
      {"measurement": "dose at which complete reversal of plasma LH levels is evident", "setting": "[2]", "value": 10, "unit": "mg/kg"},
      {"measurement": "plasma LH levels", "setting": "[2]; various doses, s.c. for 14 days", "value": "dose-dependent suppression"}
    ]},
    {"smiles": "N#Cc1ccc(N2C3CCC2CC(OC(=O)CCN2CCOCC2)C3)c2ccccc12", "note": "(stereo not drawn) [156AF32-246, 3-Morpholin-4-ylpropionic acid endo-8-(4-cyanonaphthalen-1-yl)-8-azabicyclo[3.2.1]oct-3-yl ester, hydrochloride]", "values": [
      {"measurement": "EC50", "setting": "Androgen AR receptor", "value": 39.8, "unit": "nM"},
      {"measurement": "Emax", "setting": "Androgen AR receptor", "value": 57, "unit": "%"}
    ]},
    {"smiles": "CC1(O)CC2CCC(C1)N2c1ccc(C#N)c2ccccc12", "note": "(stereo not drawn) [156AF70-267, 4-(3-Endo-hydroxy-3-exo-methyl-8-azabicyclo[3.2.1]oct-8-yl)naphthalene-1-carbonitrile]", "values": [
      {"measurement": "EC50", "setting": "Androgen AR receptor", "value": 2, "unit": "nM"},
      {"measurement": "Emax", "setting": "Androgen AR receptor", "value": 88, "unit": "%"}
    ]},
    {"smiles": "CC1C=CC(C)N1c1ccc(C#N)c2ccccc12", "note": "(stereo not drawn) [196MBT2-7, 4-(2,5-Dimethyl-2,5-dihydropyrrol-1-yl)naphthalene-1-carbonitrile]", "values": [
      {"measurement": "EC50", "setting": "Androgen AR receptor", "value": 7.94, "unit": "nM"},
      {"measurement": "Emax", "setting": "Androgen AR receptor", "value": 85, "unit": "%"}
    ]},
    {"smiles": "CCC(=O)O[C@H]1CC[C@H]2[C@@H]3CCC4=CC(=O)CC[C@]4(C)[C@H]3CC[C@]12C", "note": "[testosterone propionate]", "values": [
      {"measurement": "wet weight of prostate", "setting": "[1]; [4]", "value": "did not have any effect"},
      {"measurement": "wet weight of seminal vesicle", "setting": "[1]; [4]", "value": "did not have any effect"},
      {"measurement": "wet weight of prostate", "setting": "[1]; [5]", "value": "significant increases"},
      {"measurement": "wet weight of seminal vesicle", "setting": "[1]; [5]", "value": "significant increases"},
      {"measurement": "wet weight of levator ani muscle", "setting": "[1]; [5]", "value": "significant increases"},
      {"measurement": "plasma LH levels", "setting": "[2]; 1 mg/kg, s.c. for 14 days, versus naive rats", "value": "restored LH levels to those obtained in naive rats"},
      {"measurement": "plasma LH levels", "setting": "[2]; chronic administration (14 days), 0.1 and 1 mg/kg, versus naive animals", "value": "dose dependent reversal"}
    ]}
  ]
}
